In US5047404A, “Chemical compounds” (Smith Kline & French Laboratories, Ltd., priority 1988, dated 1991):

What was measured:
[1] = system: ovalbumen-induced bronchoconstrictor response; test: Anti-allergic activity: ovalbumen-induced bronchoconstrictor response in sensitised guinea-pigs; type: in vivo, guinea-pigs (male Duncan Hartley); conditions: dose 28 μmol/kg i.v. bolus, ovalbumen 1 mg.kg^-1 i.v. challenge 30 min after drug
Method: Male Duncan Hartley guinea-pigs (250-300 g) were sensitised to ovalbumen by i.p. injection of 2 ml of 50 mg.ml^-1 i.p. and 0.2 ml s.c. Three weeks later they were anaesthetised with 60 mg.kg^-1 sodium pentabarbitone. The trachea was cannulated and the animal respired at a rate of 40 breaths per minute and at an initial tracheal inflation pressure of 16 mmHg. Tracheal inflation pressure was measured by a transducer connected to a side arm of the respiration circuit. The carotid artery was cannulated for the measurement of blood pressure and the signal was used to trigger an instantaneous rate meter. A jugular vein was cannulated for the administration of drug and allergen. After surgery the animals were allowed to stabilise and the drug was administered i.v. as a bolus. Following this, ovalbumen 1 mg.kg^-1 was injected i.v. as the antigen challenge either 2, 15 or 30 minutes following drug treatment and the peak bronchoconstrictor response recorded. For the control group ovalbumen only was given. One ovalbumen challenge per guinea-pig was used and n=6 for each time point. The percentage increase in tracheal inflation pressure was calculated. The following results indicating an anti-allergic activity were obtained.

[2] = target: calmodulin insensitive cyclic GMP phosphodiesterase (Homo sapiens, UniProt O76074); test: Phosphodiesterase activity: inhibition of calmodulin insensitive cyclic GMP phosphodiesterase; type: biochemical; conditions: procedure of European Patent Application No. 293063; read-out: IC50 (concentration of inhibitor required for 50% inhibition of enzyme activity)
[3] = system: hindquarter vascular resistance; test: Vasodilatation in vivo: hindquarter blood flow, perfused hind quarters; design: species or system rats (male Wistar); conditions: anaesthetised rats; bolus i.v., 10 μmol/kg
Method: Male Wistar rats (300 g) were anaesthetised with a sodium 5-ethyl-5-(I-methylpropyl)-2-thiobarbiturate/sodium pentobarbitone mixture i.p. (62.5 and 22.5 mg/kg respectively). The trachea was cannulated and the rats breathed spontaneously air enriched with O2 (5 ml/min). Blood pressure was recorded from a carotid artery and a jugular vein was cannulated for the administration of compounds. The temperature of the animal was maintained at 37° C. by the use of an electric blanket. […] The perfusion circuit was primed with 5% bovine serum albumin dissolved in 0.9% sodium chloride solution, pH adjusted to 7.4. Initially the pump rate was set between 10 and 15 ml/min to match the hind quarter perfusion pressure to that of the systemic circulation. Once set, the pressure remained unaltered for the rest of the experiment. A change in the speed of the pump (equivalent to hindquarter blood flow) was used to assess the changes in hindquarter vascular resistance.

SMILES | IC50 [2] [µM] | other results
CCCOc1ccccc1-c1nc2ncccc2c(=O)[nH]1 [Example 1, 2-(2-Propoxyphenyl)pyrido[2,3-d]pyrimid-4(3H)-one] | – | % Inhibition of Control Bronchoconstrictor Response 30 min after drug administration [1]: 9%
CCCOc1ccccc1-c1nc2ncc(=O)[nH]c2c(=O)[nH]1 [Example 6, 2-(2-Propoxyphenyl)pteridin-4,6(3H,5H)-dione] | 0.55 to 11.4 | –
CCCOc1ccccc1-c1nc2[nH]c(=O)c(=O)[nH]c2c(=O)[nH]1 [Example 7, 2-(2-Propoxyphenyl)pteridin-4,6,7(3H,5H,8H)-trione] | 0.55 to 11.4 | –
CCCOc1ccccc1-c1nc2nnc(NC)nc2c(=O)[nH]1 [Example 10, 3-Methylamino-5,6-dihydro-5-oxo-7-(2-propoxyphenyl)pyrimido[5,4-e][1,2,4]triazine] | 0.55 to 11.4 | –
CCCOc1ccccc1-c1nc2nnc(OC)nc2c(=O)[nH]1 [Example 11, 3-Methoxy-5,6-dihydro-5-oxo-7-(2-propoxyphenyl)pyrimido[5,4-e][1,2,4]triazine] | 0.55 to 11.4 | –
CCCOc1ccccc1-c1nc2nc(SC)nnc2c(=O)[nH]1 [Example 12, 3-Methylthio-8-oxo 6-(2-propoxyphenyl)-7,8-dihydropyrimido[4,5-e][1,2,4]triazine] | – | increase in hindquarter blood flow [3]: 38%
